What was measured:
BPEC cells = assay: In vitro growth inhibition of BPEC cells by estrogen antagonist; format: cell-based, human; details: data not shown
Excerpt: (§1) Expression of CK18 and BER-Ep4 both confirm the adenocarcinoma features and exclude a squamous tumor. E-cadherin excludes a mesenchymal tumor. BPLER xenografts express progesterone receptor, which is consistent with the notion that BPLER xenografts are hormone-responsive. This was confirmed by experiments in which estrogen-progesterone treatment of mice increased subject tumor size approximately two-fold compared to untreated mice. […] Similar tumor xenografts from cells cultured in the MEGM media was negative for progesterone receptor expression and the in vitro growth inhibition of the cells with ICI 182,780 was less than 20% (data not shown).

BPLE cells = assay: In vitro growth inhibition of BPLE cells by estrogen antagonist; format: cell-based, human; details: data not shown
Excerpt: as §1

[1] = tested on: cells cultured in the MEGM media; assay: In vitro growth inhibition of cells cultured in the MEGM media by estrogen antagonist; format: cell-based, human; details: data not shown
Excerpt: as §1

BPE cells = assay: In vitro growth inhibition of BPE cells by estrogen antagonist; format: cell-based, human; details: data not shown
Excerpt: as §1

BPLER xenografts = assay: Hormone response of BPLER xenograft tumors in mice; format: in vivo; details: estrogen treated animals vs control animals
Excerpt: In one respect, the histology of tumors arising from BPLER is very similar, if not identical to human ductal breast carcinoma. There is prominent luminal marker CK18 expression in BPLER cells and tumors. There is also prominent expression of E-cadherin, a marker indicating polarization of cells. Morphology wise, BPLER xenografts form glandular structures similar to those seen in human tumors. BPLER xenografts into mammary fat pads are invasive into adjacent skeletal muscle, and cause a desmoplastic reaction. BPLER xenografts also express progesterone receptors based on immunohistological staining of xenograft tumor samples. In addition, BPLER tumor sizes respond to estrogen treatment, in that xenograft tumors weighed about 70-100% more in estrogen treated animals than in control animals. BPLER tumors spread within the breast tissue of mice, and the multifocal growth is consistent with lymphovascular invasion and spread of tumors.
Subcutaneous tumorigenicity was tested in 6-8 week old immunocompromised athymic nude mice by injecting about 1×10^6 cells resuspended in 100 μl of 50% matrigel (EHSS). Nude mice were irradiated with 400 rad 12 hr prior to injections. Orthotopic tumorigenicity was tested by injecting about 1×10^6 cells into the mammary fat pad of Nod/Skid mice. All mice were sacrificed on day 70. […]

With `C[C@]12CC[C@@H]3c4ccc(O)cc4C[C@@H](CCCCCCCCC[S+]([O-])CCCC(F)(F)C(F)(F)F)[C@H]3[C@@H]1CC[C@@H]2O` (some centres unmarked) [ICI 182,780] the growth inhibition (BPEC cells) was over 80%, the growth inhibition (BPLE cells) was over 80% and the “in vitro growth inhibition” value [1] was “less than 20%”. For the same compound, the growth inhibition (BPE cells) was over 80%.

estrogen was tested, and the “xenograft tumor weight increase in treated versus control animals” value (BPLER xenografts) was 70-100%.

Source: patent publication US8936939B2, “Hormone responsive tissue culture system and uses thereof” (Whitehead Institute for Biomedical Research, priority 2004, dated 2015)
